Laboratory results from paper PMC7577563 (Journal of medicinal chemistry, 2019).
Square brackets hold non-standard residues; d marks the D form. Peptide text beside a SMILES is read from it. Tyr(SO2F) = N[C@@H](Cc1ccc(OS(=O)(=O)F)cc1)C(=O)O; NMeA = CN[C@@H](C)C(=O)O

What was measured:
Plasma stability = assay type: in vitro ADME; conditions: mouse plasma

CN[C@@H](C)C(=O)N[C@@H](CNC(=O)c1ccc(S(=O)(=O)F)cc1)C(=O)N1CCC[C@H]1C(=O)N[C@@H](Cc1ccccc1)C(N)=O [Compound 2]
Aqueous stability at physiological pH (Chemical): the least stable

CN[C@@H](C)C(=O)N[C@@H](CNCc1ccc(S(=O)(=O)F)cc1)C(=O)N1CCC[C@H]1C(=O)N[C@@H](Cc1ccccc1)C(N)=O [Compound 3]
Aqueous stability at physiological pH (Chemical): intermediate stability

CN[C@@H](C)C(=O)N[C@@H](Cc1ccc(OS(=O)(=O)F)cc1)C(=O)N1CCC[C@H]1C(=O)N[C@@H](Cc1ccccc1)C(N)=O [Compound 4] (H-[NMeA][Tyr(SO2F)]PF-NH2)
Aqueous stability at physiological pH (Chemical): the most stable

CN[C@@H](C)C(=O)N[C@@H](CNCc1ccc(S(=O)(=O)F)cc1)C(=O)N1CCC[C@H]1C(=O)N[C@@H]1CCc2c(F)cccc21 [Compound 11, 4-((((S)-3-((S)-2-(((R)-4-fluoro-2,3-dihydro-1H-inden-1-yl)carbamoyl)pyrrolidin-1-yl)-2-((S)-2(methylamino)propanamido)-3-oxopropyl)amino)methyl)benzenesulfonyl fluoride]
Plasma stability (Plasma stability): completely degraded in plasma after 40 minutes
